Drawing on patent publication US8669256B2, “Substituted thieno[2,3-b]pyrazine compounds as modulators of B-Raf kinase activity” (Merck Sharp & Dohme B.V., priority 2010, dated 2014), this text covers IC50 for 16 compounds.

The IC50 is the concentration that inhibits the measured activity by half.

The target of one test is T1, GST-tagged human recombinant active B-Raf (Δ1-415) (Homo sapiens, UniProt P15056).
T1 construct: GST; purchased Upstate/Millipore
T1 sequence (P15056 416-766, stated change not applied): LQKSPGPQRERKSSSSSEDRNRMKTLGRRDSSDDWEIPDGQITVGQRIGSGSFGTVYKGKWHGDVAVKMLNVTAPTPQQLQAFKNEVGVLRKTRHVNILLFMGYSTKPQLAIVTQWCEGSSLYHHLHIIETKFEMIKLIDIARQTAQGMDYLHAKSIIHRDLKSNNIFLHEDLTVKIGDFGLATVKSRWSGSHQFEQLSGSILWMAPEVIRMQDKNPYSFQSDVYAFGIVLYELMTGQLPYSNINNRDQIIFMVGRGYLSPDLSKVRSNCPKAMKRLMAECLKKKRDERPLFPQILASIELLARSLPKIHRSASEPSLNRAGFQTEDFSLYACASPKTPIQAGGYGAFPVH
Description: B-Raf kinase activity, IMAP coupled assay (B-Raf/MEK1/ERK2, fluorescence polarization). Type of test: biochemical.
Conditions: not given
From the text: (§1) In another assay the B-Raf kinase activity can be determined by using an IMAP assay (Immobilized Metal Assay for Phosphochemicals-based coupled assay). IMAP is a homogeneous fluorescence polarization (FP) assay based on affinity capture of phosphorylated peptide substrates. IMAP uses fluorescein-labeled peptide substrates that, upon phosphorylation by a protein kinase, bind to so called IMAP nanoparticles, which are derivatized with trivalent metal complexes. Such binding causes a change in the rate of the molecular motion of the peptide, and results in an increase in the FP value observed for the fluorescein label attached to the substrate peptide. In such an assay, B-Raf phosphorylates unactive MEK1. The phosphorylated MEK1 is capable of phosphorylating ERK2, which subsequently phosphorylates the fluorescein-labeled peptide substrate.
Determination of B-Raf Kinase Activity using an IMAP Assay
as §1, with “Inhibition of” for “In another assay the”, “was measured” for “can be determined by”, “Immobilized” for “IMAP assay (Immobilized”, “assay (IMAP).” for “assay).”, “this” for “such an”
Enzymes, substrate and ATP were diluted at all steps in Kinase Reaction buffer (10 mM Tris-HCl, 10 mM MgCl2, 0.01% Tween-20, 0.05% NaN3 pH 7.2, 1 mM DTT). The final volume at the kinase reaction step of the assay in the 384-well plate was 20 μl. The concentrations within brackets are final concentrations in the assay. B-Raf (GST-tagged human recombinant active B-Raf (Δ1-415), Upstate/Millipore; 0.2 U/ml) was pre-incubated with compounds or DMSO (1% final concentration) for 60 minutes at room temperature in the dark. Thereafter, MEK 1 (GST-tagged human recombinant unactive MEK1 (full-length); 64 ng/ml), ERK2 (GST-tagged human recombinant unactive ERK2 (full-length); 600 ng/ml), peptide substrate (Erktide, Molecular Devices; 50 nM) and ATP (50 μM) were added to the wells and the mix was incubated for another 60 minutes at 30° C. in the dark. Then, IMAP progressive binding buffer (75% 1× buffer A, 25% 1× buffer B, 1:900 Progressive Binding Reagent; Molecular Devices) was added followed by an incubation step of 60 minutes at room temperature in the dark. Finally, the FP signal was read on an Envision Multilabel reader (Perkin Elmer).
In the case of `Cc1ccc(NC(=O)c2cccc(C(C)(C)C#N)c2)cc1/N=C(\C#N)c1cc2nccnc2s1` [Example 56, (E)-N-(5-(3-(2-cyanopropan-2-yl)benzamido)-2-methylphenyl)thieno[2,3-b]pyrazine-6-carbimidoyl cyanide], the half-maximal inhibitory concentration (IC50) was under 100 nM.

The same test, now with this note: bounds also given as pIC50 (>6, >7, >8); 60 min pre-incubation with compound, ATP 50 μM; read-out: IC50, B-Raf IMAP assay.
Turning to `Cc1ccc(NC(=O)c2cccc(C(C)(C)C#N)c2)cc1NC(=O)c1cc2nc(Cl)cnc2s1` [Example 12, 2-chloro-N-(5-(3-(2-cyanopropan-2-yl)benzamido)-2-methylphenyl)thieno[2,3-b]pyrazine-6-carboxamide], the IC50 is under 100 nM.

On to `Cc1ccc(NC(=O)c2cccc(C(C)(C)C#N)c2)cc1NC(=O)c1cc2nc(-c3cncnc3)cnc2s1` [Example 22, N-(5-(3-(2-cyanopropan-2-yl)benzamido)-2-methylphenyl)-2-(pyrimidin-5-yl)thieno[2,3-b]pyrazine-6-carboxamide], for which the half-inhibitory concentration (IC50) is under 10 nM.

With `Cc1ccc(NC(=O)c2cccc(C(C)(C)C#N)c2)cc1NC(=O)c1cc2nc(-c3cnc(N(C)C)nc3)cnc2s1` [Example 23, N-(5-(3-(2-cyanopropan-2-yl)benzamido)-2-methylphenyl)-2-(2-(dimethylamino)pyrimidin-5-yl)thieno[2,3-b]pyrazine-6-carboxamide], the IC50 is under 100 nM. As for `Cc1ccc(NC(=O)c2ccnc(N(C)C)c2)cc1NC(=O)c1cc2nccnc2s1` [Example 25, N-(5-(2-(dimethylamino)isonicotinamido)-2-methylphenyl)thieno[2,3-b]pyrazine-6-carboxamide], the IC50 is under 100 nM. On the same count and under the same terms, as for `Cc1ccc(NC(=O)c2ccc(CN3CCN(C)CC3)c(C(F)(F)F)c2)cc1NC(=O)c1cc2nccnc2s1` [Example 33, N-(2-methyl-5-(4-((4-methylpiperazin-1-yl)methyl)-3-(trifluoromethyl)benzamido)phenyl)thieno[2,3-b]pyrazine-6-carboxamide], the figure is under 100 nM; as for `Cc1ccc(NC(=O)c2cccc(-n3cccn3)c2)cc1NC(=O)c1cc2nccnc2s1` [Example 34, N-(5-(3-(1H-pyrazol-1-yl)benzamido)-2-methylphenyl)thieno[2,3-b]pyrazine-6-carboxamide], under 100 nM.

As for `Cc1ccc(NC(=O)c2cccc(C(C)(C)C#N)c2)cc1NCc1cc2nccnc2s1` [Example 47, 3-(2-cyanopropan-2-yl)-N-(4-methyl-3-(thieno[2,3-b]pyrazin-6-ylmethylamino)phenyl)benzamide], the 50% inhibitory concentration (IC50) is under 100 nM.

Take `Cc1ccc(C(=O)Nc2cccc(C(F)(F)F)c2)cc1NC(=O)c1cc2nccnc2s1` [Example 48, N-(2-methyl-5-(3-(trifluoromethyl)phenylcarbamoyl)phenyl)-thieno[2,3-b]pyrazine-6-carboxamide]: the IC50 is under 100 nM. In the case of `CC(C)(C#N)c1cccc(C(=O)Nc2ccc(C#N)c(NC(=O)c3cc4nccnc4s3)c2)c1` [Example 52, N-(2-cyano-5-(3-(2-cyanopropan-2-yl)benzamido)phenyl)thieno[2,3-b]pyrazine-6-carboxamide], the concentration for half-maximal inhibition (IC50) is under 100 nM.

As to `Cc1ccc(NC(=O)c2cccc(-c3ccsc3)c2)cc1NC(=O)c1cc2nccnc2s1` [Example 57, N-(2-methyl-5-(3-(thiophen-3-yl)benzamido)phenyl)thieno[2,3-b]pyrazine-6-carboxamide], the IC50 is under 100 nM. As to `Cc1ccc(NC(=O)c2cccc(C(C)(C)C#N)c2)cc1NC(=O)c1cc2[nH]c(=O)cnc2s1` [Example 58, N-(5-(3-(2-cyanopropan-2-yl)benzamido)-2-methylphenyl)-2-oxo-1,2-dihydrothieno[2,3-b]pyrazine-6-carboxamide], the half-maximal inhibitory concentration (IC50) is under 100 nM.

With `Cc1ccc(NC(=O)c2cccc(C(C)(C)C#N)c2)cc1NC(=O)c1cc2ncc(N(C)C)nc2s1` [Example 60, N-(5-(3-(2-cyanopropan-2-yl)benzamido)-2-methylphenyl)-3-(dimethylamino)thieno[2,3-b]pyrazine-6-carboxamide], the IC50 was under 10 nM.

With `CCOc1cnc2cc(C(=O)Nc3cc(NC(=O)c4cccc(C(C)(C)C#N)c4)ccc3C)sc2n1` [Example 71, N-(5-(3-(2-cyanopropan-2-yl)benzamido)-2-methylphenyl)-3-ethoxythieno[2,3-b]pyrazine-6-carboxamide], the IC50 was under 100 nM. `Cc1ccc(C(=O)Nc2cccc(C(F)(F)F)c2)cc1NC(=O)c1sc2nccnc2c1N` [Example 74, 7-amino-N-(2-methyl-5-(3-(trifluoromethyl)phenylcarbamoyl)phenyl)thieno[2,3-b]pyrazine-6-carboxamide]: the IC50 was under 100 nM. For `CCOc1cnc2sc(C(=O)Nc3cc(NC(=O)c4cccc(C(C)(C)C#N)c4)ccc3C)cc2n1` [Example 76, N-(5-(3-(2-cyanopropan-2-yl)benzamido)-2-methylphenyl)-2-ethoxythieno[2,3-b]pyrazine-6-carboxamide], the IC50 is under 100 nM.
